From patent US20100028402A1, “NANOPARTICLE-BASED ANTICOAGULANT” (priority 2006, published 2010) come the findings set out here.

The nature of one data set: Nanoparticle dimension. The data set is classed as physicochemical.
Data set [1] in a line: MTT and LDH cytotoxicity assays, kidney cells. The data set is classed as cell-based, porcine. As to conditions: pig, LLC-PK1 porcine proximal tubule epithelial cells, treated 6, 24 or 48 hours, 1.0 to 0.004 mg/mL, read-out: LC50 (the source's name). The method, then:
(§1) The cytotoxicity of AF1, AF3, C3, DF1 and NCL22 on porcine proximal tubule epithelial cells (LLC-PK1) was determined by a method that includes a 3-(4,5-Dimethyl-2-thiazolyl)-2,5-diphenyl-2H-tetrazolium bromide (MTT) reduction and lactate dehydrogenase (LDH) release assays. MTT that is a yellow water-soluble tetrazolium dye that is reduced by live cells to a water-insoluble purple formazan. The amount of formazan can be determined by solubilizing the formazan in DMSO and measuring it spectrophotometrically. Comparisons between the spectra of treated and untreated cells can give a relative estimation of cytotoxicity. (See, Alley et al. Cancer Res. 48: 589-60, 1988 which is hereby incorporated by reference in its entirety). The LDH assay is based upon LDH (a cytoplasmic enzyme that is released into the […] upon cell lysis) oxidizing lactate to pyruvate, pyruvate reacting with a tetrazolium salt INT to form formazan, and the water-soluble formazan dye being detected spectrophotometrically. Thus, the LDH assay is a measure of membrane integrity. […]
(§2) Briefly, for assays employing porcine kidney epithelial cells, such cells were plated at […] in a 96 well plate. […] Cytotoxicity was then determined by MTT and LDH assays.

Data set [2] deals with porcine proximal tubule epithelial cells (LLC-PK1). The experiment in a line: MTT and LDH cytotoxicity assays, kidney cells. Format: cell-based. As to conditions: 1.0 to 0.004 mg/mL. The method, then:
as §1, §2

For data set [3], the system named is platelets (human platelet-rich plasma). Nature of the data set: Platelet aggregation assay, with and without collagen. Format: cell-based. The method, then: Platelet Aggregation Assay. […] The concentration of the nanoparticle was determined by considering the following parameters: i) the solubility of the nanoparticle in a biocompatible buffer; ii) maintaining the pH within a physiological range (pH 7±0.5); iii) availability of nanoparticle; and iv) stability of the nanoparticle. […] The assay required 150 μL of test material.
Platelet-rich plasma (PRP) was obtained from fresh pooled human whole blood by spinning freshly drawn blood for 8 minutes at 200 g. PRP was then pooled from at least 3 different donors. It is to be noted that during phlebotomy, the first 2 mLs of blood was discarded. Further, PRP was prepared as soon as possible from the time of obtaining the blood sample and no longer than 1 hour after blood collection. PRP was kept at room temperature and was used within 4 hours of its isolation. Exposure of either the blood or PRP to cold temperatures (<20° C.) was avoided because such temperatures induce platelet aggregations.
Three test tubes for the test sample, two tubes for the positive control and two tubes for the negative control were prepared. Twenty-five microliters of the test sample, positive control or negative control were added to the respective tubes. These samples provided data on the ability of the test nanoparticle to induced platelet aggregation. A second set of tubes were prepared for test-particles plus collagen. These set of tubes provided data on the ability of test-particles to interfere with platelet aggregation caused by collagen. For this set of studies, 25 μL of the positive control and 25 μL of the test nanoparticle was added to each “test-particles plus collagen” tube. Further, 50 μL of the negative control was added to each negative control tube and 25 μL of the positive control and 25 μL of RPMI was added to each positive control tube. In addition, one control tube with 100 μL of phosphate buffer saline (PBS) or RPMI and 25 μL of the nanoparticles was prepared to determine any potential particle interference with instrument counting procedure.
PRP was added to the appropriate tubes, samples were briefly vortexed and then incubated with control or test sample for 15 minutes at a nominal temperature of 37° C. After the incubation period, 10 mL of Isoton II diluent was added into blood cell counter vials. Two vials were prepared for each sample replicate. Twenty microliters of PRP treated with positive control, negative control or test-nanoparticle was then added to the each vial. Vials were covered and gently inverted to mix the diluted samples. PRP was analyzed by a Z2 Particle Count and Size Analyzer (Beckman Coulter) to determine the number of active platelets. Percent Coefficient of Variation (% CV) was equal to the standard deviation divided by the mean multiplied by 100. Platelet count=(5×RC)/100=# platelets×10^9/L. Further, percent platelet aggregation (% aggregation)=Control Platelet Count−Sample Platelet Count/Control Platelet Count×100). The percent coefficient of variation for each control and test sample was within 25%. […] Percent platelet aggregation above 20% was considered to be positive (for example, test-particle induces platelet aggregation).

Data set [4] relates to red blood cells (pooled normal human whole blood). The experiment in a line: Hemolysis assay. Format: cell-based. An excerpt: Hemolysis Assay. This assay employs a protocol for quantitative colorimetric determination of hemoglobin in whole blood (total blood hemoglobin—TBH) and hemoglobin released into plasma (plasma free hemoglobin—PFH) when blood was exposed to nanoparticles. In brief, hemoglobin and its derivatives, except sulfhemoglobin, were oxidized to methemoglobin by ferricyanide in the presence of alkali. Cyanmethemoglobin (CMH) was formed from the methemoglobin by its reaction with cyanide (Drabkin's solution) and then detected by spectrophotometer set at 540 nm. The hemoglobin standard was used to build a standard curve covering the concentration range from 0.025 to 0.80 mg/mL and to prepare quality control samples at low (0.0625 mg/mL), mid (0.125 mg/mL) and high (0.625 mg/mL) concentrations to monitor assay performance. Required sample volume was 300 μL, e.g., 100 μL per test-replicate. The results expressed as percent of hemolysis were used to evaluate the acute in vitro hemolytic properties of nanoparticles.
The following reagents were used in the assay: cyanmethemoglobin (CMH) reagent, (StanBio, cat. # 0321-380); hemoglobin standard (StanBio, cat. # 0325-006); Ca/Mg free DPBS (Sigma, catalogue no: D8537); pooled normal human whole blood anti-coagulated with Li-heparin; poly-L-Lysine hydrobromide (MW 150 000-300 000, Sigma, cat #P1399); polyethylene glycol (av. MW 8 000, Sigma cat # P1458); and distilled water. It is contemplated that equivalent reagents from other vendors can be used.
The positive control was prepared by dissolving poly-L-Lysine powder to a final concentration of 1% (10 mg/mL) in sterile distilled water. […] Alternatively, 1% TritonX-100 in water was used as a positive control. […]
Whole blood was collected in tubes containing Li-heparin as anti coagulant from at least three donors. […] The plate was then read by use of a plate reader at an absorbance of 540 nm to determine hemoglobin concentration. […] If calculated PFH concentration was below 1 mg/mL pooled whole blood was diluted with Ca^2+/Mg^2+ free DPBS to adjust total hemoglobin concentration to 10±2 mg/mL. […]

For data set [5], the system named is murine bone marrow myeloid precursors. Nature of the data set: CFU-GM assay (myelosuppression). Conditions: FIG. 3.
Method: CFU-GM Assay. The granulocyte-macrophage colony-forming units (CFU-GM) assay employed murine bone marrow (BM). […] The BM cells were isolated from 8-12 week old mice and cultured in methylcellulose-based medium supplemented with cytokines (mSCF, mIL-3 and hIL-6) either untreated (baseline) or treated with nanoparticles (test). These cytokines promoted formation of granulocyte and macrophage (CFU-GM) colonies. After twelve days of incubation at 37° C. in the presence of 5% CO2 and 95% humidity number of colonies was quantified in baseline and test samples. A percent of CFU inhibition was then calculated for each test sample. The basic protocol for BM isolation and culture was adopted from technical manual # 28405 developed by StemCell Technologies Inc. The assay required 450 μL of a test-nanoparticles, MethoCult medium (StemCell Technologies Inc cat. # 03534), Fetal Bovine Serum prescreened for hematopoietic stem cells (StemCell Technologies Inc. cat. # 06200), Iscove's MDM with 2% FBS (StemCell Technologies Inc cat. # 07700), sterile distilled water, blunt-end 16 gauge needles (StemCell Technologies Inc cat. # 03534 2.6), cisplatin (positive control; Sigma cat #P4394), Sterile Ca^2+/Mg^2+-free DPBS (negative control; Sigma D8537). […]
The CFU-GM assay required 450 μL of nanoparticles, e.g., three 150 μL samples, each of which is analyzed in duplicate. […]

In brackets after ≈: the same amount, converted by molar mass.

As for `O=C(O)C1(C(=O)O)C2c3ccc4c5c3-c3c6c7c8c9c3C53C(C(=O)O)(C(=O)O)C35C(=C4)Cc3cc4c(c-9c35)C83C(CC4)(CC7CC621)C3(C(=O)O)C(=O)O` (stereo not shown) [C3, C60(>C(COOH)2)3], in “Nanoparticle dimension”, the dimension is 1.57 nm. Further, in data set [1], the CC50 is 207 µg/mL (≈ 293 µM). The “toxicity to kidney cells” value in data set [2] is reported as “minimally toxic”. The “collagen-induced platelet aggregation in presence of compound” value in data set [3] (compound 200 μg/mL, collagen 20 μg/mL (collagen alone greater than 60%), FIG. 4) was “approximately 15%”. Moreover, the percent of hemolysis result in data set [4] (human, 3 h) is on record as “less than 2%”. The “protection of bone marrow cells from myelosuppression caused by cisplatin” value in data set [5] (with cisplatin (50 μM)) was “none of the tested substituted fullerenes were able to protect the bone marrow cells”.
For `CC(=O)Oc1ccccc1C(=O)O` [aspirin], the “effect on collagen-induced platelet aggregation” value in data set [3] (167 μg/mL, collagen 25 μg/mL, FIG. 5) is “significant reduction in collagen-induced platelet aggregation”. Further, the “dose dependence of inhibition of collagen-induced platelet aggregation” value in data set [3] (167, 33.4 and 16.7 μg/mL, collagen 25 μg/mL, FIG. 5) is recorded as “dose dependent”.
As to `N.N.[Cl][Pt][Cl]` [cisplatin], in data set [5] (positive control, 50 μM), the myelosuppressive effect entry is listed as “myelosuppression caused by cisplatin treatment”.
Turning to Triton X-100, in data set [4], the “hemolysis by positive control” value stood at 90±5% and the “hemolysis of the red blood cells” value is listed as “greater than 80%”.
collagen: the platelet aggregation induced entry in data set [3] (collagen 20 μg/mL, FIG. 4) is “greater than 60%”; in data set [3] (collagen 25 μg/mL, FIG. 5) it was “greater than 80%”.
